{"source": "patent US20260258066A1", "about": "“NOVEL RUTHENIUM COMPLEXES, METHOD OF THEIR SYNTHESIS, INTERMEDIATE COMPOUNDS USED IN THIS METHOD, METHOD OF THEIR SYNTHESIS AND THE USE OF NOVEL RUTHENIUM COMPLEXES IN OLEFIN METATHESIS REACTIONS” (UNIWERSYTET WARSZAWSKI, priority 2022, published 2026)", "experiment": "Test of complex solubility in nonpolar solvents (n-hexane)", "format": "physicochemical", "settings": "5 mg catalyst, n-hexane added in portions, room temperature, magnetic stirring", "procedure": "In a round-bottom flask equipped with a stirring bar, the catalyst (Ru-a, Ru-b, Ru-c, Ru-d, Ru-h, Ru-15, Ru-16 and Hov-II) was placed, in the amount of 5 mg of each. n-hexane was added to each of the flasks in portions, at room temperature, and the mixture was stirred using a magnetic stirrer. The Ru-a dissolved in 6 mL, and the Ru-h complex in 4 mL of the solvent. In the case of the Ru-15 complex, almost complete solubility was observed after adding 20 mL of n-hexane."}
{"smiles": "Cc1cc(C)c(N2CCN(c3c(C)cc(C)cc3C)[C]2=[Ru]([Cl])([Cl])=[CH]c2ccccc2OC(C)C)c(C)c1", "note": "[Hov-II]", "values": [{"measurement": "Volume of n-hexane in which 5 mg of the complex dissolved", "value": "> 20", "unit": "mL"}]}
